Measured values: patent US20110166121A1 (LG LIFE SCIENCES LTD., priority 2008, published 2011)
Counter-ions that a name gives are not always drawn.

System: Human platelet aggregation caused by ADP
Assay: Inhibition of ADP-induced platelet aggregation (Mimic-human PRP)
Type: cell-based
Details: 20 μM ADP, human platelet concentrate diluted with PPP, absorption at 595 nm
In short: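 Human PRP diluted with PPP to 3–4×10^8 platelets/mL was preincubated 20 min at room temperature with compound (0.01–30 μM, DMSO), then stimulated with 20 μM ADP. Aggregation read as A595 increase at 3 min versus 0 and 20 μM ADP controls; Ki from sigmoidal non-linear regression.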

CCCc1cc2c(N3CCn4c(nnc4C(F)(F)F)C3)nc(N3CC(NC(C)=O)C(NC(C)=O)C3)nc2s1 (stereo not drawn) [Example 7-28, N-{4-Acetylamino-1-[6-propyl-4-(3-trifluoromethyl-5,6-dihydro-8H-[1,2,4]triazolo[4,3-a]pyrazin-7-yl)-thieno[2,3-d]pyrimidin-2-yl]-pyrrolidin-3-yl}-acetamide]
Ki: 0.042 µM

CCCc1cc2c(N3CCn4c(nnc4C(F)(F)F)C3)nc(OCCNC(C)=O)nc2s1 [Example 7-29, N-{2-[6-Propyl-4-(3-trifluoromethyl-5,6-dihydro-8H-[1,2,4]triazolo[4,3-a]pyrazin-7-yl)-thieno[2,3-d]pyrimidin-2-yloxy]-ethyl}-acetamide]
Ki: 0.0031 µM

CCCC(=O)NCCOc1nc(N2CCn3c(nnc3C(F)(F)F)C2)c2cc(CCC)sc2n1 [Example 7-30, N-{2-[6-Propyl-4-(3-trifluoromethyl-5,6-dihydro-8H-[1,2,4]triazolo[4,3-a]pyrazin-7-yl)-thieno[2,3-d]pyrimidin-2-yloxy]-ethyl}-butyramide]
Ki: 0.0072 µM

CCCc1cc2c(N3CCn4c(nnc4C(F)(F)F)C3)nc(OCCNC(=O)C(C)C)nc2s1 [Example 7-31, N-{2-[6-Propyl-4-(3-trifluoromethyl-5,6-dihydro-8H-[1,2,4]triazolo[4,3-a]pyrazin-7-yl)-thieno[2,3-d]pyrimidin-2-yloxy]-ethyl}-isobutyramide]
Ki: 0.012 µM

CCCc1cc2c(N3CCn4c(nnc4C(F)(F)F)C3)nc(OCCNC(=O)CO)nc2s1 [Example 7-32, 2-Hydroxy-N-{2-[6-propyl-4-(3-trifluoromethyl-5,6-dihydro-8H-[1,2,4]triazolo[4,3-a]pyrazin-7-yl)-thieno[2,3-d]pyrimidin-2-yloxy]-ethyl}-acetamide]
Ki: 0.0008 µM

CCCc1cc2c(N3CCn4c(nnc4C(F)(F)F)C3)nc(OCCNC(=O)C(C)(C)O)nc2s1 [Example 7-33, 2-Hydroxy-2-methyl-N-{2-[6-propyl-4-(3-trifluoromethyl-5,6-dihydro-8H-[1,2,4]triazolo[4,3-a]pyrazin-7-yl)-thieno[2,3-d]pyrimidin-2-yloxy]-ethyl}-propionamide]
Ki: 0.0067 µM

CCCc1cc2c(N3CCn4c(nnc4C(F)(F)F)C3)nc(OCCNC(=O)C(C)(CO)CO)nc2s1 [Example 7-34, 3-Hydroxy-2-hydroxymethyl-2-methyl-N-{2-[6-propyl-4-(3-trifluoromethyl-5,6-dihydro-8H-[1,2,4]triazolo[4,3-a]pyrazin-7-yl)-thieno[2,3-d]pyrimidin-2-yloxy]-ethyl}-propionamide]
Ki: 0.016 µM

CCCc1cc2c(N3CCn4c(nnc4C(F)(F)F)C3)nc(OCCNC(=O)C(C)(C)CO)nc2s1 [Example 7-35, 3-Hydroxy-2,2-dimethyl-N-{2-[6-propyl-4-(3-trifluoromethyl-5,6-dihydro-8H-[1,2,4]triazolo[4,3-a]pyrazin-7-yl)-thieno[2,3-d]pyrimidin-2-yloxy]-ethyl}-propionamide]
Ki: 0.01 µM

CCCc1cc2c(N3CCn4c(nnc4C(F)(F)F)C3)nc(OC[C@H]3CCCN3)nc2s1 [Example 7-36, Hydrochloric acid salt of 7-[6-Propyl-2-((R)-1-pyrrolidin-2-ylmethoxy)-thieno[2,3-d]pyrimidin-4-yl]-3-trifluoromethyl-5,6,7,8-tetrahydro-[1,2,4]triazolo[4,3-a]pyrazine]
Ki: 0.1 µM

CCCc1cc2c(N3CCn4c(nnc4C(F)(F)F)C3)nc(OC[C@@H]3CCCN3)nc2s1 [Example 7-37, Hydrochloric acid salt of 7-[6-Propyl-2-((S)-1-pyrrolidin-2-ylmethoxy)-thieno[2,3-d]pyrimidin-4-yl]-3-trifluoromethyl-5,6,7,8-tetrahydro-[1,2,4]triazolo[4,3-a]pyrazine]
Ki: 0.28 µM

CCCc1cc2c(N3CCn4c(nnc4C(F)(F)F)C3)nc(NCCN)nc2s1 [Example 7-38, Hydrochloric acid salt of N-1-[6-Propyl-4-(3-trifluoromethyl-5,6-dihydro-8H-[1,2,4]triazolo[4,3-a]pyrazin-7-yl)-thieno[2,3-d]pyrimidin-2-yl]-ethane-1,2-diamine]
Ki: 0.05 µM

CCCc1cc2c(N3CCn4c(nnc4C(F)(F)F)C3)nc(N3CC[C@@H](CNC(C)=O)C3)nc2s1 [Example 8-1, N-{(S)-1-[6-Propyl-4-(3-trifluoromethyl-5,6-dihydro-8H-[1,2,4]triazolo[4,3-a]pyrazin-7-yl)-thieno[2,3-d]pyrimidin-2-yl]-pyrrolidin-3-ylmethyl}-acetamide]
Ki: 0.035 µM

CCCC(=O)NC[C@@H]1CCN(c2nc(N3CCn4c(nnc4C(F)(F)F)C3)c3cc(CCC)sc3n2)C1 [Example 8-2, N-{(S)-1-[6-Propyl-4-(3-trifluoromethyl-5,6-dihydro-8H-[1,2,4]triazolo[4,3-a]pyrazin-7-yl)-thieno[2,3-d]pyrimidin-2-yl]-pyrrolidin-3-ylmethyl}-butyramide]
Ki: 0.11 µM

CCCc1cc2c(N3CCn4c(nnc4C(F)(F)F)C3)nc(N3CC[C@@H](CNC(=O)C(C)C)C3)nc2s1 [Example 8-3, N-{(S)-1-[6-Propyl-4-(3-trifluoromethyl-5,6-dihydro-8H-[1,2,4]triazolo[4,3-a]pyrazin-7-yl)-thieno[2,3-d]pyrimidin-2-yl]-pyrrolidin-3-ylmethyl}-isobutyramide]
Ki: 0.33 µM

CCCc1cc2c(N3CCn4c(nnc4C(F)(F)F)C3)nc(N3CC[C@H](CNC(C)=O)C3)nc2s1 [Example 8-4, N-{(R)-1-[6-Propyl-4-(3-trifluoromethyl-5,6-dihydro-8H-[1,2,4]triazolo[4,3-a]pyrazin-7-yl)-thieno[2,3-d]pyrimidin-2-yl]-pyrrolidin-3-ylmethyl}-acetamide]
Ki: 0.014 µM

CCCc1cc2c(N3CCn4c(nnc4C(F)(F)F)C3)nc(N3CC[C@H](CNC(=O)C(C)C)C3)nc2s1 [Example 8-6, N-{(R)-1-[6-Propyl-4-(3-trifluoromethyl-5,6-dihydro-8H-[1,2,4]triazolo[4,3-a]pyrazin-7-yl)-thieno[2,3-d]pyrimidin-2-yl]-pyrrolidin-3-ylmethyl}-isobutyramide]
Ki: 0.12 µM

CCCc1cc2c(N3CCn4c(nnc4C(F)(F)F)C3)nc(NCCNC(C)=O)nc2s1 [Example 8-7, N-{2-[6-Propyl-4-(3-trifluoromethyl-5,6-dihydro-8H-[1,2,4]triazolo[4,3-a]pyrazin-7-yl)-thieno[2,3-d]pyrimidin-2-ylamino]-ethyl}-acetamide]
Ki: 0.032 µM

CCCC(=O)NCCNc1nc(N2CCn3c(nnc3C(F)(F)F)C2)c2cc(CCC)sc2n1 [Example 8-8, N-{2-[6-Propyl-4-(3-trifluoromethyl-5,6-dihydro-8H-[1,2,4]triazolo[4,3-a]pyrazin-7-yl)-thieno[2,3-d]pyrimidin-2-ylamino]-ethyl}-butyramide]
Ki: 0.085 µM

CCCc1cc2c(N3CCn4c(nnc4C(F)(F)F)C3)nc(NCCNC(=O)C(C)C)nc2s1 [Example 8-9, N-{2-[6-Propyl-4-(3-trifluoromethyl-5,6-dihydro-8H-[1,2,4]triazolo[4,3-a]pyrazin-7-yl)-thieno[2,3-d]pyrimidin-2-ylamino]-ethyl}-isobutyramide]
Ki: 0.15 µM

CCCc1cc2c(N3CCn4c(nnc4C(F)(F)F)C3)nc(NC3CN(C(C)=O)C3)nc2s1 [Example 8-10, 1-{3-[6-Propyl-4-(3-trifluoromethyl-5,6-dihydro-8H-[1,2,4]triazolo[4,3-a]pyrazin-7-yl)-thieno[2,3-d]pyrimidin-2-ylamino]-azetidin-1-yl}-ethanone]
Ki: 0.11 µM

CCCc1cc2c(N3CCn4c(nnc4C(F)(F)F)C3)nc(N[C@H]3CCN(C(C)=O)C3)nc2s1 [Example 8-13, 1-{(S)-3-[6-Propyl-4-(3-trifluoromethyl-5,6-dihydro-8H-[1,2,4]triazolo[4,3-a]pyrazin-7-yl)-thieno[2,3-d]pyrimidin-2-ylamino]-pyrrolidin-1-yl}-ethanone]
Ki: 0.003 µM

CCCC(=O)N1CC[C@H](Nc2nc(N3CCn4c(nnc4C(F)(F)F)C3)c3cc(CCC)sc3n2)C1 [Example 8-14, 1-{(S)-3-[6-Propyl-4-(3-trifluoromethyl-5,6-dihydro-8H-[1,2,4]triazolo[4,3-a]pyrazin-7-yl)-thieno[2,3-d]pyrimidin-2-ylamino]-pyrrolidin-1-yl}-butan-1-one]
Ki: 0.003 µM

CCCc1cc2c(N3CCn4c(nnc4C(F)(F)F)C3)nc(N[C@H]3CCN(C(=O)C(C)C)C3)nc2s1 [Example 8-15, 2-Methyl-1-{(S)-3-[6-propyl-4-(3-trifluoromethyl-5,6-dihydro-8H-[1,2,4]triazolo[4,3-a]pyrazin-7-yl)-thieno[2,3-d]pyrimidin-2-ylamino]-pyrrolidin-1-yl}-propan-1-one]
Ki: 0.007 µM

CCCc1cc2c(N3CCn4c(nnc4C(F)(F)F)C3)nc(N[C@@H]3CCN(C(C)=O)C3)nc2s1 [Example 8-16, 1-{(R)-3-[6-Propyl-4-(3-trifluoromethyl-5,6-dihydro-8H-[1,2,4]triazolo[4,3-a]pyrazin-7-yl)-thieno[2,3-d]pyrimidin-2-ylamino]-pyrrolidin-1-yl}-ethanone]
Ki: 0.035 µM

CCCC(=O)N1CC[C@@H](Nc2nc(N3CCn4c(nnc4C(F)(F)F)C3)c3cc(CCC)sc3n2)C1 [Example 8-17, 1-{(R)-3-[6-Propyl-4-(3-trifluoromethyl-5,6-dihydro-8H-[1,2,4]triazolo[4,3-a]pyrazin-7-yl)-thieno[2,3-d]pyrimidin-2-ylamino]-pyrrolidin-1-yl}-butan-1-one]
Ki: 0.035 µM

CCCc1cc2c(N3CCn4c(nnc4C(F)(F)F)C3)nc(N[C@@H]3CCN(C(=O)C(C)C)C3)nc2s1 [Example 8-18, 2-Methyl-1-{(R)-3-[6-propyl-4-(3-trifluoromethyl-5,6-dihydro-8H-[1,2,4]triazolo[4,3-a]pyrazin-7-yl)-thieno[2,3-d]pyrimidin-2-ylamino]-pyrrolidin-1-yl}-propan-1-one]
Ki: 0.041 µM

CCCc1cc2c(N3CCn4c(nnc4C(F)(F)F)C3)nc(NC[C@@H]3CCN(C(C)=O)C3)nc2s1 [Example 8-19, 1-((S)-3-{[6-Propyl-4-(3-trifluoromethyl-5,6-dihydro-8H-[1,2,4]triazolo[4,3-a]pyrazin-7-yl)-thieno[2,3-d]pyrimidin-2-ylamino]-methyl}-pyrrolidin-1-yl)-ethanone]
Ki: 0.15 µM
